Here are results for four molecules from patent US5654321A, “2-chloro-3-arylamino-1,4-naphthoquinone derivatives, process for preparation thereof and use thereof as an agent for inhibiting platelet aggregation” (Dong Kook Pharmaceutical Co. Ltd., priority 1996, dated 1997).

One data set relates to rabbit platelet. The settings on record: Ko et al., Thromb. Res. 57, 453-463, 1990; cited from earlier work.
In data set [1] the test system is washed platelet. Nature of the data set: Inhibition of platelet aggregation induced by platelet agonists (aggregometer, light transmission, method of Born). The class given is cell-based, rat. The settings on record: for IC50: washed platelet, 37° C., read-out: concentration by which the platelet aggregation induced by agonists is reduced by 50%. Here is the method: Blood was taken from abdominal aorta of rat using a syringe in which sodium citrate (final content 0.38%) was previously filled, and centrifuged under 160×g at room temperature for 15 minutes to obtain the platelet rich plasma as the supernatant. This platelet rich plasma was centrifuged again under 1500×g for 15 minutes to obtain the precipitate which was then washed three times with a washing buffer solution (129 mM sodium chloride, 0.8 mM dipotassium hydrogenphosphate, 8.9 mM sodium carbonate, 2.8 mM potassium chloride, 0.8 mM magnesium chloride, 5.6 mM glucose, 10 mM N-[2-hydroxyethyl]-piperazine-N'-[2-ethanesulfonic acid], acidity pH 7.4) containing 2 mM ethylenediamine tetraacetic acid to remove protein and calcium from the plasma. This […] was then carefully re-suspended in a modified Tyrode's buffer solution (129 mM sodium chloride, 0.8 mM dipotassium hydrogenphosphate, 8.9 mM sodium carbonate, 2.8 mM potassium chloride, 0.8 mM magnesium chloride, 5.6 mM glucose, 10 mM N-[2-hydroxyethyl]piperazine-N-'-[2-ethanesulfonic acid], acidity pH 7.4) containing 0.35% bovine serum albumin to obtain the washed platelet.
In this experiment, the platelet aggregation ability was determined by measuring a change in light transmission depending on turbidity change by means of an apparatus for measuring platelet aggregation ability (Chronolog Co.: Pennsylvania, Harvertown) according to a method of Born (see, Born, G. V. R., Nature, 194, 927, 1962). As the control, the light transmission degree for the plasma having substantially no platelet was used. 495 μl of the platelet rich plasma prepared in the above (1) was added to a cuvette for aggregometer, which has a silicon-treated surface. This cuvette was pre-treated by inserting it into a cuvette channel which is maintained at 37° C. and retaining for 30 seconds. Then, 2.5 μl of the compound according to the present invention, NQ-Y15 (final concentration 10^-4 M), dissolved in dimethylsulfoxide was added to the cuvette. The reaction was conducted again at 37° C. for 8 minutes. Then, the change in light transmission developed by adding 2.5 μl of thrombin (final concentration 0.5U/ml) thereto was measured for 10 minutes.
In addition, 495 μl of the washed platelet prepared in the above (1) was pre-treated for 30 seconds at 37° C. according to the same procedure as above and then 2.5 μl of the compound according to the present invention, NQ-Y15, dissolved in dimethylsulfoxide was added thereto. This mixture was allowed to react for 8 minutes at 37° C. Then, 2.5 μl of the platelet agonist (thrombin 0.1U/ml, collagen 10 μg/ml or calcium ionophore A23187 having the following formula 2 μM) was added to the reaction mixture to induce the platelet aggregation and then the change in light transmission was measured for 10 minutes. In this experiment, the light transmission degree for Tyrode's buffer solution was used as the control. [drawing 7]
The result was determined by calculating the relative ratio of the light transmission degree obtained in each case to the light transmission degree obtained from treatment only with platelet agonists, which is regarded as 100% aggregation.

Data set [2] relates to washed platelet. As to the kind of experiment: Excretion of lactic acid dehydrogenase (LDH) from platelets, cytotoxicity. Particulars: for Concentration of LDH: NQ-Y15 0.1 mM, Triton X-100 0.1%. It counts as cell-based, rat. The text has this:
Lactic acid dehydrogenase (LDH) is an enzyme present in cytoplasm of platelets and is excreted from platelet cytoplasm into extracellular fluid when platelet membrane is injured or cytotoxicity such as cytolysis is induced. Accordingly, it was intended to identify whether the compound of the present invention induces the cytotoxicity by quantitatively measuring lactic acid dehydrogenase excreted after the pre-treatment with the compound of the present invention.
To the washed platelet, dimethylsulfoxide(DMSO) (control group) which can dissolve the compound, NQ-Y15, of the present invention, NQ-Y15 or Triton X-100 (0.1%) which can disrupt the cellular membrane was added. Then, this mixture was centrifuged under 12,000×g at room temperature for 2 minutes to separate the supernatant. To the separated supernatant was added a reagent for measuring lactic acid dehydrogenase LD-L10^R (Sigma) and then the excreted lactic acid dehydrogenase was quantitatively analyzed by means of an automated clinical chemistry analyzer SBA300 (Gilford) which can automatically quantitate lactic acid dehydrogenase.

In data set [3] the test system is [14C]-serotonin-loaded platelet (washed platelet). Nature of the data set: Inhibition of 5-[14C]-serotonin secretion from agonist-activated platelets. The class given is cell-based, rat. The source says: Contrary to other cells, platelets contain numerous granules such as dense granule, α-granule, lysosome and peroxisome, each of which preserves very useful physiological substances. When platelet is activated by any stimulus, substances contained in granules are secreted out of the cells through exocytosis. Particularly, dense granule contains adenine nucleotides such as adenosine diphosphate (ADP), adenosine triphosphate (ATP), etc, calcium, serotonin, etc., which are secreted upon aggregation of platelets and then cause irreversible secondary aggregation. Thus, it can be said that irreversible secondary aggregation induced by ADP, thrombin, etc. is the result of such granule secretion. […]
The inhibitory activity of the compound of the present invention against serotonin secretion was determined using [^14 C]-serotonin-loaded platelet according to the method of Huzoor, et. al. (see, Huzoor-Akbar, Patel, S., Kokrady, S., Witiak, D. T., Newman, H. A. I. and Feller, D. R., Biochem. Pharmacol. 30, 2013-2020, 1981). […] This mixture was then centrifuged under 12,000×g at room temperature for 2 minutes to separate the supernatant from which the radioactivity of 5-[^14 C]-serotonin was measured.

Data set [4] concerns washed platelet (thromboxane B2 synthesis). Nature of the data set: Inhibition of thromboxane A2 production (thromboxane B2 by radioimmunoassay) in collagen-activated platelets. The class given is cell-based, rat. Particulars: for Thromboxane B2: DMSO + collagen 98.44 ± 11.52, DMSO + saline 0.82 ± 0.22. Here is the method: The ability of producing thromboxane A2 was determined as follow according to the method described in literature [see, Ko, F. N., Sheu, S. J., Liu, Y. M., Huang, T. F., and Teng, C. M., Inhibition of rabbit platelet aggregation by 1,4-naphthoquinones, Thromb. Res. 57, 453-463, 1990]. The experiment was conducted in a plastic cuvette containing 0.5 ml of the washed platelet (3×10^8 platelet/ml) while maintaining the temperature at 37° C. First, the washed platelet was pre-treated with the compound of the present invention, NQ-Y15, for 8 minutes and then collagen was added thereto. After incubation for 5 minutes, the reaction was allowed to stop by adding 2 mM ethylenediamine tetraacetic acid and 50 μM indomethacin. This mixture was centrifuged under 12,000×g at room temperature for 2 minutes to separate the supernatant which was then stored at -20° C. Since thromboxane A2 has a unstable structure and therefore, is immediately converted into a stable thromboxane B2, the production of thromboxane B2 as an index for the thromboxane A2 production was measured by radioimmunoassay.

For another data set, the system named is human platelet. The settings on record: Blackwell et al., Thromb. Res. 37, 103-114, 1985; cited from earlier work.

“Also recorded” adds a separate entry of the source. Where two headings read alike, the source gives them in different places.

As to `CC1=C(Cl)C(=O)c2ccccc2C1=O` [2-chloro-3-methyl-1,4-naphthoquinone], the “inhibition of platelet aggregation in rabbit (in words)” value in the data set with rabbit platelet was “inhibits the platelet aggregation in rabbit”.
`N#Cc1ccc(NC2=C(Cl)C(=O)c3ccccc3C2=O)cc1` [NQ-Y15, 2-chloro-3-[(4-cyanophenyl)-amino]-1,4-naphthoquinone]: the IC50 in the data set with washed platelet [1] (Rattus norvegicus, Platelet, A23187 2 μM, 8 min pre-treatment (FIG. 3)) was about 100 µM; in the data set with washed platelet [1] (Rattus norvegicus, Platelet, collagen 10 μg/ml, 8 min pre-treatment (FIG. 2)), about 7 µM; with washed platelet [1] (Rattus norvegicus, Platelet, thrombin 0.1U/ml, 8 min pre-treatment (FIG. 1)), about 38 µM. The IC100 in the data set with washed platelet [1] (Rattus norvegicus, Platelet, agonist not stated, read-out: concentration to completely inhibit the platelet aggregation) turned out to be 100 µM. Besides, the “inhibition of platelet aggregation induced by platelet agonists (in words)” value in the data set with washed platelet [1] (thrombin, collagen and A23187, FIGS. 1 to 3) is “inhibits the platelet aggregation induced by platelet agonists dependent upon its concentration”. Also, the “Concentration of LDH” value with washed platelet [2] (0 min, DMSO 6.13 ± 1.13) was 2.87 ± 0.12 U/L; in the data set on washed platelet [2] (10 min, DMSO 5.73 ± 2.54) it was 4.57 ± 1.05 U/L; in the data set with washed platelet [2] (20 min, DMSO 8.25 ± 1.85) it was 5.47 ± 0.52 U/L; in the data set with washed platelet [2] (40 min, DMSO 9.77 ± 1.37) it was 8.47 ± 0.43 U/L; in the data set with washed platelet [2] (80 min, DMSO 12.20 ± 1.74), 11.55 ± 0.05 U/L; with washed platelet [2] (120 min, DMSO 14.83 ± 1.39) it was 16.67 ± 1.24 U/L. Further, the “LDH excretion versus control group / cytotoxicity (in words)” value in the data set with washed platelet [2] (0.1 mM, pre-treated for 120 minutes) is listed as “does not show any significant difference from the control group; also recorded: does not cause a cytotoxicity even at high concentration”. Also, the “inhibition of serotonin secretion increased by collagen (in words)” value in data set [3] (collagen, within concentration range inhibiting platelet aggregation (FIG. 5)) is on record as “inhibits the serotonin secretion”. Also, the “inhibition of serotonin secretion increased by thrombin (in words)” value in data set [3] (thrombin, within concentration range inhibiting platelet aggregation (FIG. 4)) is given as “inhibits the serotonin secretion increased by thrombin”. Besides, the “Thromboxane B2” value was found to be 78.33 ± 11.85 ng/mL in data set [4] (NQ-Y15 10 μM + collagen), 15.30 ± 2.84 ng/mL in data set [4] (NQ-Y15 30 μM + collagen) and 8.50 ± 1.81 ng/mL in data set [4] (NQ-Y15 50 μM + collagen). Further, in data set [4] (Rattus norvegicus, Platelet, 30 μM, read-out: inhibitory effect on the increase in thromboxane A2 production induced by collagen), the inhibition at 30 µM came to 15.5%. In data set [4] (Rattus norvegicus, Platelet, 50 μM, read-out: inhibitory effect on the increase in thromboxane A2 production induced by collagen), the inhibition at 50 µM is 86.3%.
Regarding `CC1=CC(=O)c2ccccc2C1=O` [vitamin K3, menadione], in the data set with human platelet, the “inhibition of platelet aggregation in human being (in words)” value is listed as “has an effect on inhibition of platelet aggregation in human being”.
Triton X-100 [reference compound]: the “Concentration of LDH” value with washed platelet [2] (0 min, DMSO 6.13 ± 1.13) was determined as 426.40 ± 9.64 U/L; with washed platelet [2] (10 min, DMSO 5.73 ± 2.54) it was 443.07 ± 1.27 U/L; in the data set on washed platelet [2] (20 min, DMSO 8.25 ± 1.85), 444.93 ± 4.97 U/L; in the data set with washed platelet [2] (40 min, DMSO 9.77 ± 1.37) it was 442.20 ± 0.87 U/L; in the data set on washed platelet [2] (80 min, DMSO 12.20 ± 1.74), 443.73 ± 0.37 U/L; in the data set on washed platelet [2] (120 min, DMSO 14.83 ± 1.39) it was 443.30 ± 2.53 U/L.
